Data set [1] has as its system Th17 cells differentiation and secretion of IL-17. Briefly: Inhibition of Th17 differentiation in human PBMC (IL-17 ELISA). The class given is cell-based. The settings on record: for Emax: Homo sapiens, PBMC, maximum inhibition rate, maximum concentration 3 μM; for pIC50: IL-17 secretion, human PBMC, 48 hours. As to the method: Test procedure: the PBMC cells were first thawed and plated, and then stimulated with the stimulating factors (anti-hCD28: 5 μg/mL; rhTGF-β1: 5 ng/mL; rhIL-6: 20 ng/mL; rhIL-23: 10 ng/mL) to differentiate to Th17, while different concentrations of compounds were added, with the maximum concentration starting from 3 μM. After 48 hours, the supernatant was collected for IL-17 ELISA detection. The inhibition rates of the compounds to inhibit the secretion of IL-17 by Th17 cells were determined, as compared with the vehicle group, and the IC50 values were fitted with Graphad8.0.

The nature of data set [2]: Pharmacokinetic (PK) assay in mice. The class given is in vivo, C57BL/6 mice. The note with it: for AUC(0-t) / Cmax / half-life / Vd / bioavailability: C57BL/6, mouse, plasma; for Vd: read-out: Vss; for bioavailability: Po 5 mg/kg vs IV 1 mg/kg. The method, then:
The PK of each compound was determined as follows: 6 C57BL/6 mice (obtained from Shanghai Lingchang Biotechnology Co., Ltd.) were divided into two groups with 3 in each group. One group was administered intravenously at a dose of 1 mg/kg in the vehicle of 5% DMSO/95% (20% Captisol); the other group was administered by oral gavage at a dose of 5 mg/kg in the vehicle of 0.5% CMC-Na/0.5% Tween 80. Blood samples were collected from saphenous vein of lower leg in each group at 0, 0.083, 0.25, 0.5, 1, 2, 4, 6, 8 and 24 h after administration. Approximately 40 μL of the blood samples were collected into anticoagulant tubes containing EDTA-K2 Immediately after collection, the tubes were inverted at least 5 times to ensure uniform mixing, and then placed on ice. The blood samples collected at each time point were centrifuged at 4° C., 8000 rpm for 5 minutes to obtain plasma. Another 1.5 mL centrifuge tube was marked with the compound name, animal number, and time point, and the plasma was transferred to this tube. The plasma was stored at −80° C. until analysis.
Compound concentrations in the plasma were determined by UPLC-MS/MS method, and the pharmacokinetic parameters were calculated from the obtained data by Phoenix WinNolin 6.4 pharmacokinetic software.

Data set [3] is described as follows: Metabolic stability in human liver microsomes. Type of data set: in vitro ADME. The settings on record: for half-life: 0.5 mg protein/mL; for microsomal CLint: read-out: CLint(mic). From the text: (§1) According to standard methods for investigating in vitro metabolic stability in the art, e.g., the methods described in Kerns, Edward H. and Di Li (2008). Drug-like Properties: Concepts, Structure Design and Methods: from ADME to Toxicity Optimisation. San Diego: Academic Press; Di, Li et al., Optimisation of a Higher Throughput Microsomal Stability Screening Assay for Profiling Drug Discovery Candidates, J. Biomol. Screen. 2003, 8(4), 453, the liver microsomal metabolic stability test of the compounds of the present disclosure was carried out analogously as follows. The incubation system comprising 0.5 mg protein/mL microsomes, cofactors, and PBS, was pre-incubated at 37° C. for 3 min, and then added the substrate (i.e., the test compounds) to initiate the reaction. Samples were taken at 0, 1, 5, 10, 15, 20, 30 and 60 min from the start of the reaction, and an appropriate terminator was added to terminate the reaction. Sample treatment (n=3): appropriate samples were added respectively, vortexed and centrifuged at high speed. The supernatants were collected and detected for the substrate by HPLC-MS/MS. The peak area at the 0 mm was taken as 100%. The peak areas at other time points were converted to percentages of remaining. The natural logarithms of the percentages of remaining at each time point was plotted against the incubation time, and the slope (−k) was calculated by linear regression. Then, Clint (μL/min/mg) and half-life (T½, min.) of the compounds were calculated following the equation: Inherent clearance rate (Clint)=(k*Volume of incubation solution)/Mass of liver microsomes.

Data set [4] in a line: Metabolic stability in mouse liver microsomes. Type of data set: in vitro ADME, CD-1 mice. The note with it: for half-life: CD-1, 0.5 mg protein/mL; for microsomal CLint: CD-1, read-out: CLint(mic).
Description: as §1

Another data set deals with T1, RORγt (Homo sapiens, UniProt P51449).
T1 sequence (P51449 269-508 limits assumed): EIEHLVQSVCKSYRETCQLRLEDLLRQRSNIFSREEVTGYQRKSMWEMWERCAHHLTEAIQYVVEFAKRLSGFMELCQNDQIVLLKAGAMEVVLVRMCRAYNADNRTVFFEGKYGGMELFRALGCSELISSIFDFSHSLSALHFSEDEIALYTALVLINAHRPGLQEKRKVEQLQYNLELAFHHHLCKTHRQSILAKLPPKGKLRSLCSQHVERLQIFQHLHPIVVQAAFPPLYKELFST
In words: In vitro luciferase reporter assay of RORγt inhibition (GAL4-RORγ-LBD in HEK293T). The note with it: for Emax: HEK-293T, relative maximum inhibition rate relative to AZD-0284 at 10 μM; for pIC50: IC50, RORγt luciferase reporter gene, HEK293T.

pIC50: −log10 of the molar value.

Description for RORγt: The RORγ-LBD coding sequence was inserted into pBIND plasmid (Promega, E1581). The expression vector and a reporter vector (pGL4.35 carrying a stably integrated luciferase reporter gene driven by GAL4 promoter) were co-expressed in HEK293T host cells. When the inhibitor binds to the corresponding chimeric receptor, the chimeric receptor binds to the GAL4 binding site on the reporter gene carrier and inhibits reporter gene expression. The inhibition activity of the compounds on RORγ was determined according to the intensity of the chemiluminescence signal.
2.2 Cell Transfection • a) Balancing the Trans-IT transfection reagent at room temperature; • b) Adding 20 μl of the transfection reagent and 600 μl of Opti-MEM™ medium without contacting the tube wall, mixing uniformly through blowing and pipetting by a pipette gun, and allowing to stand at room temperature for 5 minutes; • c) Adding 10 μg of the plasmid to the transfection reagent (see Step 2.2.b), and allowing to stand at room temperature for 20 minutes; • Plasmids: 5 μg of pBIND-RORγ and 5 μg of pGL4.35 plasmids were respectively added therein; • d) Adding the mixed DNA transfection reagent to a 100 mm cell culture dish (see Step 2.1); • e) Placing the dish in an incubator at 37° C. and 5% CO2 for 5 h. […] Calculation of % Inhibition
[formula] • RLUcmpd: fluorescence value of test compounds • RLUpositive: average value of positive control • RLUvehicle: average value of negative control
IC50s of the compounds were calculated by fitting the % Inhibition and the logarithm values of the compound concentration using Graphad 8.0.

In data set [1], `CCS(=O)(=O)c1ccc2c(c1)CCN(C(C)=O)C2C(=O)Nc1ccc(C(O)(C(F)(F)F)C(F)(F)F)cc1` (racemic) [Example 1, 2-Acetyl-6-(ethylsulfonyl)-N-(4-(1,1,1,3,3,3-hexafluoro-2-hydroxypropan-2-yl)phenyl)-1,2,3,4-tetrahydroisoquinoline-1-carboxamide] showed an Emax of 79% and a pIC50 of 7.29. Further, in data set [2] (IV, 1 mg/kg), the AUC(0-t) was found to be 1850 ng·h/mL, the Cmax was 1390 ng/mL, the half-life was 5.09 h and the Vd turned out to be 2.71 L/kg. The CL_obs in data set [2] (IV, 1 mg/kg) is 7.12 mL/min/kg. Also, the bioavailability in data set [2] was determined as 84%. Also, in data set [2] (Po, 5 mg/kg), the AUC(0-t) is 9640 ng·h/mL, the Cmax was 816 ng/mL and the half-life is 3.91 h. Besides, in data set [3], the half-life is above 2.42 h, the “Remaining % (T = 60 min)” value turned out to be 94.2% and the microsomal CLint was below 9.6 µL/min/mg. For the same molecule, in data set [4], the half-life is above 2.42 h, the microsomal CLint is below 9.6 µL/min/mg and the “Remaining % (T = 60 min)” value amounted to 94.5%. For the same molecule, on RORγt, the Emax was found to be 102% and the pIC50 is 7.72.

`CCS(=O)(=O)c1ccc2c(c1)CCN(C(C)=O)C2C(=O)Nc1ccc(C(F)(C(F)(F)F)C(F)(F)F)cc1` (racemic) [Example 7, 2-Acetyl-6-(ethylsulfonyl)-N-(4-(perfluoropropan-2-yl)phenyl)-1,2,3,4-tetrahydroisoquinoline-1-carboxamide]: in data set [1], the Emax stood at 72% and the pIC50 was 7.67. In data set [2] (IV, 1 mg/kg), the AUC(0-t) was 4870 ng·h/mL, the concentration peaked (Cmax) at 703 ng/mL, the half-life was 39.9 h and the Vd amounted to 4.02 L/kg. Also, in data set [2] (IV, 1 mg/kg), the CL_obs came to 1.23 mL/min/kg. In data set [2], the bioavailability came out at 83.5%. In data set [2] (Po, 5 mg/kg), this molecule had an AUC(0-t) of 20300 ng·h/mL, a Cmax of 1080 ng/mL and a half-life of 37.6 h. Besides, in data set [3], the half-life turned out to be 1.26 h, the “Remaining % (T = 60 min)” value turned out to be 61.0% and the microsomal CLint was 18.4 µL/min/mg. In addition, in data set [4], the half-life is above 2.42 h, the microsomal CLint was below 9.6 µL/min/mg and the “Remaining % (T = 60 min)” value worked out at 79.7%. On RORγt, the Emax is 99.6% and the pIC50 is 7.91.

As to `CCS(=O)(=O)c1ccc2c(c1)CCN(C(C)=O)C2C(=O)Nc1ccc(C(O)(C(F)(F)F)C(F)(F)F)cc1` (single isomer, unassigned) [Example 2, (R)-2-acetyl-6-(ethylsulfonyl)-N-(4-(1,1,1,3,3,3-hexafluoro-2-hydroxypropan-2-yl)phenyl)-1,2,3,4-tetrahydroisoquinoline-1-carboxamide or (S)-2-acetyl-6-(ethylsulfonyl)-N-(4-(1,1,1,3,3,3-hexafluoro-2-hydroxypropan-2-yl)phenyl)-1,2,3,4-tetrahydroisoquinoline-1-carboxamide], in data set [1], the Emax was 78.3% and the pIC50 is 7.64. Also, in data set [2] (IV, 1 mg/kg), the AUC(0-t) came to 1300 ng·h/mL, the Cmax was 2310 ng/mL, the half-life was 1.78 h and the Vd is 1.06 L/kg. The CL_obs in data set [2] (IV, 1 mg/kg) turned out to be 12.8 mL/min/kg. The bioavailability in data set [2] turned out to be 82.1%. Further, in data set [2] (Po, 5 mg/kg), the AUC(0-t) was 5330 ng·h/mL, the Cmax came out at 553 ng/mL and the half-life is 3.31 h. Further, in data set [3], the half-life was above 2.42 h, the “Remaining % (T = 60 min)” value is 82.2% and the microsomal CLint is below 9.6 µL/min/mg. In addition, in data set [4], the half-life is above 2.42 h, the microsomal CLint was below 9.6 µL/min/mg and the “Remaining % (T = 60 min)” value is recorded as 102.3%. Also, on RORγt, the Emax stood at 100% and the pIC50 is 8.10.

`CC(=O)N1CCc2cc(S(C)(=O)=O)ccc2C1C(=O)Nc1ccc(C(O)(C(F)(F)F)C(F)(F)F)cc1` (centres unmarked) [Example 5, 2-Acetyl-N-(4-(1,1,1,3,3,3-hexafluoro-2-hydroxypropan-2-yl)phenyl)-6-(methylsulfonyl)-1,2,3,4-tetrahydroisoquinoline-1-carboxamide]: in data set [2] (IV, 1 mg/kg), the AUC(0-t) was 1190 ng·h/mL, the Cmax stood at 1890 ng/mL, the half-life was 4.89 h and the Vd came out at 3.34 L/kg. In addition, the CL_obs in data set [2] (IV, 1 mg/kg) turned out to be 13.8 mL/min/kg. The bioavailability in data set [2] was found to be 213%. In data set [2] (Po, 5 mg/kg), this molecule gave an AUC(0-t) of 12600 ng·h/mL, a Cmax of 1370 ng/mL and a half-life of 4.33 h. For the same molecule, in data set [3], the half-life was above 2.42 h, the “Remaining % (T = 60 min)” value was 85.0% and the microsomal CLint is below 9.6 µL/min/mg. Also, in data set [4], the half-life was above 2.42 h, the microsomal CLint is below 9.6 µL/min/mg and the “Remaining % (T = 60 min)” value worked out at 86.6%.

In the case of `CCS(=O)(=O)c1cc2c(s1)C(C(=O)Nc1ccc(C(O)(C(F)(F)F)C(F)(F)F)cc1)N(C(C)=O)CC2` (centres unmarked) [Example 6, 6-Acetyl-2-(ethylsulfonyl)-N-(4-(1,1,1,3,3,3-hexafluoro-2-hydroxypropan-2-yl)phenyl)-4,5,6,7-tetrahydrothieno[2,3-c]pyridine-7-carboxamide], in data set [3], the half-life is above 2.42 h, the “Remaining % (T = 60 min)” value amounted to 70.2% and the microsomal CLint is below 9.6 µL/min/mg. Also, in data set [4], the half-life stood at 1.54 h, the microsomal CLint stood at 14.9 µL/min/mg and the “Remaining % (T = 60 min)” value is 59.4%. Besides, on RORγt, the Emax came out at 99.9% and the pIC50 is 6.95.
